Values of other authors in PMC8533211, “Computationally Assisted Lead Optimization of Novel Potent and Selective MAO-B Inhibitors” (Biomedicines, 2021).

Tests used:
[1] = test system: MAO-A; design: method as in PMID 32869630; details: chemiluminescent assay, MAO-Glo kit; cited from earlier work
[2] = test system: MAO-B; design: method as in PMID 32869630; details: chemiluminescent assay, MAO-Glo kit; cited from earlier work
[3] = test system: MAO-A (rat liver mitochondrial fraction); design: method as in PMID 18372132; details: chromogenic solution; cited from earlier work
[4] = test system: MAO-B (rat liver mitochondrial fraction); design: method as in PMID 18372132; details: cited from earlier work
[5] = test system: human recombinant MAO A; details: human recombinant; kynuramine; cited from earlier work
[6] = test system: human recombinant MAO B; details: cited from earlier work
[7] = target: T1, human recombinant MAO-B (Homo sapiens, UniProt P27338); design: purchased BD Biosciences (Bedford, MA, USA); details: cited from earlier work
T1 sequence (P27338 1-520): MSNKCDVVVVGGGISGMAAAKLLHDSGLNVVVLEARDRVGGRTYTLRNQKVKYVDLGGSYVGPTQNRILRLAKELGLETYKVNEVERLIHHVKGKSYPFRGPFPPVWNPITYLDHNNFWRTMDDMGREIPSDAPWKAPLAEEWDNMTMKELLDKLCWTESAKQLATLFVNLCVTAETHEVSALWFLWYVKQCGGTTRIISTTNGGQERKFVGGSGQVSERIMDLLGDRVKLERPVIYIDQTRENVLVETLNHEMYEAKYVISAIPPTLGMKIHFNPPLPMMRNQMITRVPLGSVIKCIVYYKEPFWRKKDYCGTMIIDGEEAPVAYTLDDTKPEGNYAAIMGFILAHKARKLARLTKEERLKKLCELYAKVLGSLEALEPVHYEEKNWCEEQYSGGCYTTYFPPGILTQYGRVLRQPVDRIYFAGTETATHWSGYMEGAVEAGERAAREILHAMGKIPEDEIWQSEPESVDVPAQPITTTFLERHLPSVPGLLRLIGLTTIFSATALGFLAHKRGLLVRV

O=c1cc(-c2ccc(O)c(O)c2)oc2cc(O)cc(O)c12 [Luteolin]
IC50 [1]: 8.57 ± 0.47 µM
IC50 [2]: > 100 µM

O=C1C[C@@H](c2ccc(O)cc2)Oc2cc(O)cc(O)c21 [Naringenin]
IC50 [3]: 955 ± 129 µM
IC50 ([4]; chromogenic solution): 288 ± 18 µM
Selectivity Index MAO-A/B [4]: 3.32

COc1ccc(-c2cc(=O)c3c(O)cc(OC)cc3o2)cc1 [Acacetin 7-O-methyl ether]
IC50 [5]: > 100 µM
Selectivity Index MAO-A/B [6]: >505.05
selectivity index (SI) for MAO A/B [6]: > 505 fold
IC50 ([6]; human recombinant, kynuramine): 0.198 ± 0.001 µM
Monoamine Oxidase B Type of Inhibition [7]: competitive/partially reversible
